Tests used:
[1] = target: CRBN (Homo sapiens, UniProt Q96SW2); experiment: CRBN displacement assay Format 1 (fluorescence polarization, BodipyFL-lenalidomide probe Compound HH); assay type: binding
Outline: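 Compound and CRBN protein (nominally 100 nM) were preincubated for 45 min at room temperature before a 5 nM BodipyFL-lenalidomide probe started competition, with 0.9% DMSO final. Polarization was measured 45 min later, exciting at 485 nm and reading 520 nm. AC50 came from a logistic fit with Hill coefficient.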

[2] = target: T1, BTK (Homo sapiens, UniProt Q06187); experiment: BTK-GFP protein abundance flow cytometry assay in HEK293A; assay type: cell-based; details: 24 h; for BTK degradation Amax: % protein remaining at the concentration at which maximum degradation is seen, HEK293A; for DC50: concentration at which 50% maximal degradation was observed, HEK293A BTK-GFP sensor cells
T1 construct: the BTK open reading frame (ORF) was first shuttled from a pcDNA-DEST40-BTK vector; expressed in transfected cells; host or cells: HEK293A (Invitrogen R70507), lentiviral transduction, blasticidin selection
T1 sequence (Q06187 whole entry): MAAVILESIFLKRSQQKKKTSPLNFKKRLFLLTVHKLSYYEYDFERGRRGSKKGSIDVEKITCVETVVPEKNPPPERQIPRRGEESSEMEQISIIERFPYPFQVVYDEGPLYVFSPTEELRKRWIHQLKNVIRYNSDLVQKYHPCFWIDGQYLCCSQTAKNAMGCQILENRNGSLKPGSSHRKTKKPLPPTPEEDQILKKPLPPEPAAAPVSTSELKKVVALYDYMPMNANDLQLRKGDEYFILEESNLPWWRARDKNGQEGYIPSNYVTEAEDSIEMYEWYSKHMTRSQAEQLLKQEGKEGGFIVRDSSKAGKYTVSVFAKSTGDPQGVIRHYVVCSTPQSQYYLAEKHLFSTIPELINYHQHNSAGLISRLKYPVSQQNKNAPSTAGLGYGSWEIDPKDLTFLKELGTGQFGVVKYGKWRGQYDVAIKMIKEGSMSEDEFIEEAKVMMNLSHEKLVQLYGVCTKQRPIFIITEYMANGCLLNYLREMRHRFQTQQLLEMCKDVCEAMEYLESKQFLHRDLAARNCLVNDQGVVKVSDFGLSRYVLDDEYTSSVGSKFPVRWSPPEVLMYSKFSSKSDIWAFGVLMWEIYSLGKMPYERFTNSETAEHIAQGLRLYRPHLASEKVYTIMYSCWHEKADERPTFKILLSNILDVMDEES
Method: Degradation of BTK, CSK, ABL2, EPHA4 and YES1 was measured in HEK293A cells (Invitrogen R70507) expressing either BTK-GFP and RFP, CSK-GFP and mCherry, GFP-ABL2 and mCherry, EPHA4-GFP and mCherry, or YES1-GFP and mCherry from a stably integrated bicistronic BTK-GFP-iresRFP, CSK-GFP-CHYSEL-mCherry, GFP-ABL2-CHYSEL-mCherry, EPHA4-GFP-CHYSEL-mCherry, or YES1-GFP-CHYSEL-mCherry construct, respectively. Reduction of the GFP signal measured by flow cytometry served as readout for BTK, CSK, ABL2, EPHA4 and YES1 degradation after degrader treatment.
The mix was incubated for another 20 min at RT and then added on 1 mL of a freshly prepared suspension of HEK293FT cells in a well of a 6-well plate (concentration 1.2×10^6 cells/mL). 1 day after transfection, the medium was replaced with 1.5 mL of complete growth medium (DMEM high Glucose+10% FCS+1% L-Glutamine+1% NEAA+1% NaPyr.). 48 h post transfection supernatant containing viral transducing particles was collected and frozen at −80° C.
Infection was performed with 90 μL of collected supernatant containing viral transducing particles in 1 mL medium including 8 µg/mL polybrene. 24 h post infection, stably transfected cells were selected with blasticidin at a concentration of 8 μg/mL referred to as stable HEK293A sensor cells.
Stable HEK293A sensor cells were maintained in complete growth medium (DMEM high Glucose+10% FCS+1% L-Glutamine+1% NEAA+1% NaPyr.) with passaging performed twice per week. On Day 0, stable HEK293A sensor cells were seeded at 10,000 cells/well in a 96-well microtiter plate in 260 μL complete medium. On Day 1, cells were treated in duplicate with 10-point 1:3 dilution series of compound using the HP D300 Digital Dispenser (Tecan). DMSO concentrations were normalized across the plate to 0.1%. On Day 2, after 24 h of incubation at 37° C., treatment media was discarded, cells rinsed with 100 μL/well PBS and then detached using 40 μL trypsin/well for 5 min. Trypsin was neutralized with 100 μL/well PBS+20% FCS). Flow cytometry was performed on the samples using the BD FACS CANTO II (Becton Dickinson). Cell identification was then performed using forward (FSC) vs. side scatter (SSC) plots. Single cell discrimination is performed using SSC-Width (SSC-W) vs. SSC-Height (SSC-H) plots. Median GFP values for 5,000 single cells are used to determine BTK levels. Median GFP values from HEK293 Å-iresRFP are used as a background signal and thus defining 0% BTK signal. Median GFP values from DMSO treated HEK293 Å-BTK-GFP-iresRFP are used to define 100% BTK signal for subsequent DC50 curves (concentration at 50% BTK degradation). GFP and RFP are read in the channels called FITC and PE, respectively.
Concentration response curves plotting relative reduction of the GFP signal (measured by flow cytometry) versus 10 compound concentrations (starting concentration 10 μM, 3 fold dilution steps) of the compounds allowed generation of DC50 values. Protein abundance measured for the second generation vectors having a chysel was done in close analogy to the above described method for measuring BTK abundance.
Table 5 columns are defined as follows: DC50 refers to the concentration at which 50% maximal degradation was observed; deg Amax is the extent of degradation and the value refers to the % protein remaining at the concentration at which maximum degradation is seen.

Sequence of CRBN (Q96SW2 whole entry): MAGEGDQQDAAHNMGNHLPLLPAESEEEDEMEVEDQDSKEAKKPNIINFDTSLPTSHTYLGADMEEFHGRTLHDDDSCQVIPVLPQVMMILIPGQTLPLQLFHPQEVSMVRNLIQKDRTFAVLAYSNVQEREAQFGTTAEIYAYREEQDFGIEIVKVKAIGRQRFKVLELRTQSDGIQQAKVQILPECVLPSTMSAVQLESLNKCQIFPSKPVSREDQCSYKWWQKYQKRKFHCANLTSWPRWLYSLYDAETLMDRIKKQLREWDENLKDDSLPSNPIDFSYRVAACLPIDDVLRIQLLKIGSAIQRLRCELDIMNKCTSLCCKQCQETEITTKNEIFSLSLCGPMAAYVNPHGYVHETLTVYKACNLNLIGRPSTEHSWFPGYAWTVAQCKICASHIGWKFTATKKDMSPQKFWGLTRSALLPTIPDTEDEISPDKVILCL

| Structure (SMILES) | AC50 [1] | BTK degradation Amax [2] | DC50 [2] |
| --- | --- | --- | --- |
| Cc1c(NC(=O)c2ccc(C(C)(C)O)cc2F)cc(F)cc1-c1ncnc2[nH]c(-c3ccc(CN(C)CCCCCCOc4cccc(N5CCC(=O)NC5=O)c4)cc3)cc12 [Compound 16, N-(3-(6-(4-(((6-(3-(2,4-Dioxotetrahydropyrimidin-1(2H)-yl)phenoxy)hexyl)(methyl)amino)methyl)phenyl)-7H-pyrrolo[2,3-d]pyrimidin-4-yl)-5-fluoro-2-methylphenyl)-2-fluoro-4-(2-hydroxypropan-2-yl)benzamide] | 916 nM | 15.9% | 22.6 nM |
| Cc1ncc(C(=O)NCCCCCN(C)Cc2ccc(-c3cc4c(-c5cc(F)cc(NC(=O)c6ccc(C(C)(C)O)cc6F)c5C)ncnc4[nH]3)cc2)cc1N1CCC(=O)NC1=O [Compound 17, 5-(2,4-Dioxotetrahydropyrimidin-1(2H)-yl)-N-(5-((4-(4-(5-fluoro-3-(2-fluoro-4-(2-hydroxypropan-2-yl)benzamido)-2-methylphenyl)-7H-pyrrolo[2,3-d]pyrimidin-6-yl)benzyl)(methyl)amino)pentyl)-6-methylnicotinamide] | 3550 nM | 16.6% | 101 nM |
| Cc1ccc(S(=O)(=O)NCCCCCNCc2ccc(-c3cc4c(-c5cc(F)cc(NC(=O)c6ccc(C(C)(C)O)cc6F)c5C)ncnc4[nH]3)cc2)cc1N1CCC(=O)NC1=O [Compound 18, N-(3-(6-(4-(((5-(3-(2,4-dioxotetrahydropyrimidin-1(2H)-yl)-4-methylphenylsulfonamido)pentyl)amino)methyl)phenyl)-7H-pyrrolo[2,3-d]pyrimidin-4-yl)-5-fluoro-2-methylphenyl)-2-fluoro-4-(2-hydroxypropan-2-yl)benzamide] | 3090 nM | 7.6% | 307 nM |
| Cc1c(NC(=O)c2ccc(C(C)(C)O)cc2F)cc(F)cc1-c1ncnc2[nH]c(-c3ccc(CNCCCCCCn4cc(-c5cccc(N6CCC(=O)NC6=O)c5)nn4)cc3)cc12 [Compound 19, N-(3-(6-(4-(((6-(4-(3-(2,4-Dioxotetrahydropyrimidin-1(2H)-yl)phenyl)-1H-1,2,3-triazol-1-yl)hexyl)amino)methyl)phenyl)-7H-pyrrolo[2,3-d]pyrimidin-4-yl)-5-fluoro-2-methylphenyl)-2-fluoro-4-(2-hydroxypropan-2-yl)benzamide] | 104 nM | 48.2% | 229 nM |
| Cc1c(NC(=O)c2ccc(C(C)(C)O)cc2F)cc(F)cc1-c1ncnc2[nH]c(-c3ccc(CN4CCC5(CC4)CN(CCCc4ccc(N6CCC(=O)NC6=O)cc4)CCO5)cc3)cc12 [Compound 20, N-(3-(6-(4-((4-(3-(4-(2,4-Dioxotetrahydropyrimidin-1(2H)-yl)phenyl)propyl)-1-oxa-4,9-diazaspiro[5.5]undecan-9-yl)methyl)phenyl)-7H-pyrrolo[2,3-d]pyrimidin-4-yl)-5-fluoro-2-methylphenyl)-2-fluoro-4-(2-hydroxypropan-2-yl)benzamide] | > 100000 nM | 37.1% | 27.7 nM |
| Cc1c(NC(=O)c2ccc(C(C)(C)O)cc2F)cc(F)cc1-c1ncnc2[nH]c(-c3ccc(CN4CCN(C(=O)N5CCN(CCC#Cc6ccc(N7CCC(=O)NC7=O)cc6)CC5)CC4)cc3)cc12 [Compound 23, N-(3-(6-(4-((4-(4-(4-(4-(2,4-Dioxotetrahydropyrimidin-1(2H)-yl)phenyl)but-3-yn-1-yl)piperazine-1-carbonyl)piperazin-1-yl)methyl)phenyl)-7H-pyrrolo[2,3-d]pyrimidin-4-yl)-5-fluoro-2-methylphenyl)-2-fluoro-4-(2-hydroxypropan-2-yl)benzamide] | > 50500 nM | 9.6% | 2.8 nM |
| COc1cc(C(=O)N2CCC(OC3CCN(Cc4ccc(-c5cc6c(-c7cc(F)cc(NC(=O)c8ccc(C(C)(C)O)cc8F)c7C)ncnc6[nH]5)cc4)CC3)CC2)ccc1N1CCC(=O)NC1=O [Compound 24, N-(3-(6-(4-((4-((1-(4-(2,4-Dioxotetrahydropyrimidin-1(2H)-yl)-3-methoxybenzoyl)piperidin-4-yl)oxy)piperidin-1-yl)methyl)phenyl)-7H-pyrrolo[2,3-d]pyrimidin-4-yl)-5-fluoro-2-methylphenyl)-2-fluoro-4-(2-hydroxypropan-2-yl)benzamide] | 5190 nM | 55.7% | 24 nM |
| COc1cc(C(=O)NCCCCN2CCN(Cc3ccc(-c4cc5c(-c6cc(F)cc(NC(=O)c7ccc(C(C)(C)O)cc7F)c6C)ncnc5[nH]4)cc3)CC2)ccc1N1CCC(=O)NC1=O [Compound 25, N-(3-(6-(4-((4-(4-(4-(2,4-dioxotetrahydropyrimidin-1(2H)-yl)-3-methoxybenzamido)butyl)piperazin-1-yl)methyl)phenyl)-7H-pyrrolo[2,3-d]pyrimidin-4-yl)-5-fluoro-2-methylphenyl)-2-fluoro-4-(2-hydroxypropan-2-yl)benzamide] | 4470 nM | 51.1% | > 3330 nM |
| Cc1c(NC(=O)c2ccc(C(C)(C)O)cc2F)cc(F)cc1-c1ncnc2[nH]c(-c3ccc(CN4CCN(CCNC(=O)COc5ccc(N6CCC(=O)NC6=O)cc5)CC4)cc3)cc12 [Compound 26, N-(3-(6-(4-((4-(2-(2-(4-(2,4-Dioxotetrahydropyrimidin-1(2H)-yl)phenoxy)acetamido)ethyl)piperazin-1-yl)methyl)phenyl)-7H-pyrrolo[2,3-d]pyrimidin-4-yl)-5-fluoro-2-methylphenyl)-2-fluoro-4-(2-hydroxypropan-2-yl)benzamide] | 3920 nM | 10.6% | 11.2 nM |
| Cc1c(NC(=O)c2ccc(C(C)(C)O)cc2F)cc(F)cc1-c1ncnc2[nH]c(C3=CCN(C(=O)CCCCN4CCC(Oc5ccc(N6CCC(=O)NC6=O)cc5)CC4)CC3)cc12 [Compound 27, N-(3-(6-(1-(5-(4-(4-(2,4-Dioxotetrahydropyrimidin-1(2H)-yl)phenoxy)piperidin-1-yl)pentanoyl)-1,2,3,6-tetrahydropyridin-4-yl)-7H-pyrrolo[2,3-d]pyrimidin-4-yl)-5-fluoro-2-methylphenyl)-2-fluoro-4-(2-hydroxypropan-2-yl)benzamide] | 1940 nM | 21.7% | 22 nM |
| Cc1c(NC(=O)c2ccc(C(C)(C)O)cc2F)cc(F)cc1-c1ncnc2[nH]c(-c3ccc(CNCCN4CCC(Oc5ccc(N6CCC(=O)NC6=O)cc5)CC4)cc3)cc12 [Compound 29, N-(3-(6-(4-(((2-(4-(4-(2,4-dioxotetrahydropyrimidin-1(2H)-yl)phenoxy)piperidin-1-yl)ethyl)amino)methyl)phenyl)-7H-pyrrolo[2,3-d]pyrimidin-4-yl)-5-fluoro-2-methylphenyl)-2-fluoro-4-(2-hydroxypropan-2-yl)benzamide] | 2390 nM | 40.5% | 40.2 nM |
| Cc1c(NC(=O)c2ccc(C(C)(C)O)cc2F)cc(F)cc1-c1ncnc2[nH]c(-c3ccc(CN4CCC(OC5CCN(CCn6cccc(CN7CCC(=O)NC7=O)c6=O)CC5)CC4)cc3)cc12 [Compound 33, N-(3-(6-(4-((4-((1-(2-(3-((2,4-dioxotetrahydropyrimidin-1(2H)-yl)methyl)-2-oxopyridin-1(2H)-yl)ethyl)piperidin-4-yl)oxy)piperidin-1-yl)methyl)phenyl)-7H-pyrrolo[2,3-d]pyrimidin-4-yl)-5-fluoro-2-methylphenyl)-2-fluoro-4-(2-hydroxypropan-2-yl)benzamide] | 915 nM | 6.1% | 2.1 nM |

Reference: patent US20220387602A1, “BIFUNCTIONAL DEGRADERS AND THEIR METHODS OF USE” (NOVARTIS AG, priority 2019, published 2022)
